Measured values as given in publication PMC9854868, “Structure–Activity Relationship Studies of Substitutions of Cationic Amino Acid Residues on Antimicrobial Peptides” (Antibiotics, 2022).
≈ marks a conversion by molar mass, not a printed value. Read-outs that look alike come from different tables or passages of the source. Square brackets hold non-standard residues; d marks the D form. Ends that are not written are not given here. Peptide text beside a SMILES is read from it. Orn = NCCC[C@H](N)C(=O)O; Dab = NCC[C@H](N)C(=O)O; Aib = CC(C)(N)C(=O)O

What was measured:
human red blood cells = conditions: human RBCs in 172 mM Tris-HCl pH 7.6, 30 min at 37 °C, 100 to 0.39 μM, absorbance 535 nm; DMSO = 0%, M-Lycotoxin = 100%
Experimental: Human red blood cells (RBCs) were kindly supplied by the Japanese Red Cross Society (Tokyo, Japan) and were collected from volunteers under informed consent. The hemolysis test of peptides was performed using a previously reported method. In short, the RBCs were washed three times with 172 mM Tris-HCl buffer (pH = 7.6, wash buffer: WB), and 1.0 mL of sedimented erythrocytes was then transferred to 9.0 mL of WB. Then, 0.5 mL of this suspension was diluted in WB, and 50 µL of RBC suspension was incubated with 50 µL of each peptide for 30 min at 37 °C (final peptide conc from 100 to 0.39 μM). The suspensions were then centrifuged for 5 min at 400 rpm. The absorbance of the supernatant was measured at a wavelength of 535 nm. M-Lycotoxin [26] was used as a positive control, and the absorbances of the sample by treatment of DMSO and M-Lycotoxin were defined as 0 and 100%.

E. coli DH5α = assay type: cell-based, Escherichia coli
Experimental: (§1) The selected bacterial strains were obtained from the Biological Resource Center, NITE (NBRC; Tokyo, Japan). Escherichia coli DH5α cells were purchased from BioDynamics Laboratory, Inc. (Tokyo, Japan). The antimicrobial activities of the peptides against […] and three Gram-negative bacteria, S. aureus NBRC 13276, E. coli DH5α, P. aeruginosa NBRC 13275, and MDRP were measured using the standard broth microdilution method, as previously described. Briefly, the bacteria were inoculated and grown overnight at 37 °C on the media for other organisms i (agar medium) and then collected with the media for other organisms ii (liquid medium), according to the Japanese Pharmacopoeia 17th Edition. Each peptide was 2-fold serially diluted with an initial concentration of 4000 μM–1.56 μM in PBS for use. Next, 10 μL of the peptide solution per well was added to each well of a sterile 96-well plate. Subsequently, 90 μL per well of inoculation with 10^4 CFUs (colony forming units) per mL was added to each well, and the plate was incubated for 18 h at 35 °C.

MDRP = assay type: cell-based, multidrug-resistant Pseudomonas aeruginosa; conditions: 18 h
Experimental: as §1

[1] = Digestion assay with proteinase K; assay type: in vitro ADME; conditions: proteinase K (isolated protease); proteinase K 0.002% (v/v), peptide 1 mM, 37 °C, 24 h, read-out HPLC, two independent experiments; read-out: remaining peptide after treatment with proteinase K
Experimental: (§2) The digestion assay was performed using Proteinase K of the digestive enzyme. Peptides (1 mM) were treated with 0.002% (v/v) Proteinase K and peptides were incubated at 37 °C for 2–24 h. A solution (0.1% TFA/H2O/MeCN) was added to quench the enzymatic reaction. The peptides were evaluated using analytical HPLC and a Discovery® BIO Wide Pore C18 column (25 cm × 4.6 mm, solvent A: 0.1% TFA/water, solvent B: 0.1% TFA/MeCN, flow rate: […], gradient: 10–60% gradient of solvent B over 30 min). Reproducibility was confirmed by the two independent experiments.

S. aureus NBRC 13276 = assay type: cell-based, Staphylococcus aureus; conditions: NBRC 13276, 18 h
Experimental: as §1

P. aeruginosa NBRC 13275 = assay type: cell-based, Pseudomonas aeruginosa; conditions: NBRC 13275, 18 h
Experimental: as §1

proteinase K = proteinase K (Parengyodontium album, UniProt P06873); assay: Digestion assay with proteinase K; assay type: in vitro ADME; conditions: proteinase K 0.002% (v/v), peptide 1 mM, 37 °C, 2–24 h, HPLC; replacing Lys with Orn
Experimental: as §2

Chain of proteinase K (P06873 106-384): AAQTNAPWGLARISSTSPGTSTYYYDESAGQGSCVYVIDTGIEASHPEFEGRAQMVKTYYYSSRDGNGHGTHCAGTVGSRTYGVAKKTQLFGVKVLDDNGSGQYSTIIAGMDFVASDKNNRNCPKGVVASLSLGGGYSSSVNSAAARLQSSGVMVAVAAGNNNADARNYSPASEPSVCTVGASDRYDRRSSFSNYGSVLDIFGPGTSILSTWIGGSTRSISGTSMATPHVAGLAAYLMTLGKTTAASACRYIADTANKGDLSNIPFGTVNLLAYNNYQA

| Compound | Hemolysis (concentration that showed hemolytic activity greater than 50%) (human red blood cells) | MIC, Gram (–), E.Coli (E. coli DH5α; DH5α, 18 h) | MIC, Gram (–), MDRP (MDRP) | remaining at 24 h, 1 mM [1] | MIC, Gram (+), S.a. (S. aureus NBRC 13276) | MIC, Gram (–), P.a. (P. aeruginosa NBRC 13275) | prolongation of half life time (t1/2) against proteinase K versus peptide 1 (proteinase K) | MIC, Gram (–), E.Coli (E. coli DH5α; E. coli DH5α, broth microdilution, 10^4 CFU per mL, 18 h at 35 °C, final concentration 0.39 to 100 μM, lowest concentration that completely inhibited growth) |
| --- | --- | --- | --- | --- | --- | --- | --- | --- |
| CC[C@H](C)[C@H](NC(=O)CN)C(=O)N[C@@H](CCCCN)C(=O)N[C@@H](CCCCN)C(=O)N[C@@H](Cc1ccccc1)C(=O)N[C@@H](CC(C)C)C(=O)N[C@@H](CCCCN)C(=O)N[C@@H](CO)C(=O)NC(C)(C)C(=O)N[C@@H](CCCCN)C(=O)N[C@@H](CCCCN)C(=O)N[C@@H](Cc1ccccc1)C(=O)N[C@H](C(=O)N[C@@H](CCCCN)C(=O)NC(C)(C)C(=O)N[C@@H](Cc1ccccc1)C(=O)N[C@@H](CCCCN)C(N)=O)C(C)C [Peptide 1] (H-GIKKFLKS[Aib]KKFVK[Aib]FK-NH2) | 100 µM | 3.13 µM (≈ 6.25 µg/mL) | 3.13 µM (≈ 6.25 µg/mL) | ~20% | 12.5 µM (≈ 24.9 µg/mL) | 3.13 µM (≈ 6.25 µg/mL) | – | – |
| CC[C@H](C)[C@H](NC(=O)CN)C(=O)N[C@@H](CCCN)C(=O)N[C@@H](CCCN)C(=O)N[C@@H](Cc1ccccc1)C(=O)N[C@@H](CC(C)C)C(=O)N[C@@H](CCCN)C(=O)N[C@@H](CO)C(=O)NC(C)(C)C(=O)N[C@@H](CCCN)C(=O)N[C@@H](CCCN)C(=O)N[C@@H](Cc1ccccc1)C(=O)N[C@H](C(=O)N[C@@H](CCCN)C(=O)NC(C)(C)C(=O)N[C@@H](Cc1ccccc1)C(=O)N[C@@H](CCCN)C(N)=O)C(C)C [Peptide 2] (H-GI[Orn][Orn]FL[Orn]S[Aib][Orn][Orn]FV[Orn][Aib]F[Orn]-NH2) | 50 µM | 3.13 µM (≈ 5.94 µg/mL) | 3.13 µM (≈ 5.94 µg/mL) | 41% | 12.5 µM (≈ 23.7 µg/mL) | 6.25 µM (≈ 11.9 µg/mL) | up to approximately two times | – |
| CC[C@H](C)[C@H](NC(=O)CN)C(=O)N[C@@H](CCN)C(=O)N[C@@H](CCN)C(=O)N[C@@H](Cc1ccccc1)C(=O)N[C@@H](CC(C)C)C(=O)N[C@@H](CCN)C(=O)N[C@@H](CO)C(=O)NC(C)(C)C(=O)N[C@@H](CCN)C(=O)N[C@@H](CCN)C(=O)N[C@@H](Cc1ccccc1)C(=O)N[C@H](C(=O)N[C@@H](CCN)C(=O)NC(C)(C)C(=O)N[C@@H](Cc1ccccc1)C(=O)N[C@@H](CCN)C(N)=O)C(C)C [Peptide 3] (H-GI[Dab][Dab]FL[Dab]S[Aib][Dab][Dab]FV[Dab][Aib]F[Dab]-NH2) | 25 µM | 3.13 µM (≈ 5.63 µg/mL) | 6.25 µM (≈ 11.2 µg/mL) | – | 12.5 µM (≈ 22.5 µg/mL) | 6.25 µM (≈ 11.2 µg/mL) | – | – |
| CC[C@H](C)[C@H](NC(=O)CN)C(=O)N[C@@H](CCCNC(=N)N)C(=O)N[C@@H](CCCNC(=N)N)C(=O)N[C@@H](Cc1ccccc1)C(=O)N[C@@H](CC(C)C)C(=O)N[C@@H](CCCNC(=N)N)C(=O)N[C@@H](CO)C(=O)NC(C)(C)C(=O)N[C@@H](CCCNC(=N)N)C(=O)N[C@@H](CCCNC(=N)N)C(=O)N[C@@H](Cc1ccccc1)C(=O)N[C@H](C(=O)N[C@@H](CCCNC(=N)N)C(=O)NC(C)(C)C(=O)N[C@@H](Cc1ccccc1)C(=O)N[C@@H](CCCNC(=N)N)C(N)=O)C(C)C [Peptide 4] (H-GIRRFLRS[Aib]RRFVR[Aib]FR-NH2) | 6.25 µM | 3.13 µM (≈ 6.86 µg/mL) | 12.5 µM (≈ 27.4 µg/mL) | – | 3.13 µM (≈ 6.86 µg/mL) | 12.5 µM (≈ 27.4 µg/mL) | – | – |
| CC[C@H](C)[C@H](NC(=O)CN)C(=O)N[C@@H](Cc1c[nH]cn1)C(=O)N[C@@H](Cc1c[nH]cn1)C(=O)N[C@@H](Cc1ccccc1)C(=O)N[C@@H](CC(C)C)C(=O)N[C@@H](Cc1c[nH]cn1)C(=O)N[C@@H](CO)C(=O)NC(C)(C)C(=O)N[C@@H](Cc1c[nH]cn1)C(=O)N[C@@H](Cc1c[nH]cn1)C(=O)N[C@@H](Cc1ccccc1)C(=O)N[C@H](C(=O)N[C@@H](Cc1c[nH]cn1)C(=O)NC(C)(C)C(=O)N[C@@H](Cc1ccccc1)C(=O)N[C@@H](Cc1c[nH]cn1)C(N)=O)C(C)C [Peptide 5] (H-GIHHFLHS[Aib]HHFVH[Aib]FH-NH2) | >100 µM | >50 µM | >50 µM | – | >50 µM | >50 µM | – | – |
| GIGKFLHSAKKFGKAFVGEIMNS-NH2 [Mag2, magainin 2, reference compound] | >100 µM | – | 12.5 µM | – | 100 µM | 12.5 µM | – | 3.13 µM |
